Measured values published in patent US12178859B2, “Anti inflammatory composition” (WAKO FILTER TECHNOLOGY CO., LTD., priority 2019, dated 2024).

Assays:
[1] = tested on: human neutrophil suspension; assay: Neutrophil adhesion test with LPS-activated human neutrophils (96-well plate, crystal violet, OD620); format: cell-based; conditions: human neutrophils activated with E. coli lipopolysaccharide, 1 hour at 37° C.; control = 100%; FIG. 2A / FIG. 2B
Protocol: (§1) Neutrophils were collected from blood. Specifically, neutrophils were isolated from whole blood collected from healthy humans or dogs using Polymorphprep (Cosmo Bio). The separated neutrophil samples were centrifuged at 2000 rpm for about 40 minutes, then the supernatant was removed, and the residue was transferred to RPMI (SIGMA) medium supplemented with 10-mass % fetal bovine serum (Tissue Culture Biologicals, USA) and diluted to obtain a cell count of 4×10^6 cells/ml, preparing human and canine neutrophil suspensions, respectively. […] The neutrophil adhesion rate was determined as follows. The value obtained by quantifying the activated neutrophils adhered to the wells in the control without containing lysozyrne-chitosan complex or decanoic acid was set as 100%, and compared with the value obtained by quantifying the activated neutrophils adhered to the wells in the same way for the test substances in each Example and Comparative Example. Neutrophil Adhesion Rate (%)=[Quantitative Value of Adhesive Activated Neutrophils in Each Example and Comparative Example]/[Quantitative Value of Adhesive Activated Neutrophils in Control]×100 In the present invention, the ability to suppress the neutrophil adhesive reaction was evaluated by the following procedure. […]

[2] = tested on: canine neutrophil suspension; assay: Neutrophil adhesion test with LPS-activated canine neutrophils (96-well plate, crystal violet, OD620 and microscopy); format: cell-based, dogs; conditions: 0.2 mg/ml lysozyme-chitosan complex and/or 0.4 mg/ml decanoic acid, magnification 40 times, FIG. 3B to 3D
Protocol: as §1

CCCCCCCCCC(=O)O [decanoic acid]
neutrophil adhesion rate (%) as the concentration of test substance increases [1]: did not decrease
distribution of adherent neutrophils stained with crystal violet (photomicrograph) [2]: widely distributed
